The source of these data is US12680083B2, “Media for culturing naive human pluripotent stem cells” (Yeda Research and Development Co. Ltd., priority 2014, dated 2026).

Test [1] deals with WIBR3 hESCs with ESRRB mCherry knock-in reporter. As to the kind of experiment: FACS analysis of ESRRB-mCherry knock-in reporter. Format: cell-based, human. An excerpt:
FIGS. 26A-C depict the targeting human ESRRB (a gene/transcription factor) locus with knockin mCherry fluorescent reporter. FIG. 26A-Targeting scheme is illustrated. Scissors indicate CRISPR-sgRNA cut site. In order to create mCherry reporter co-expressed with endogenous human ESRRB locus, the present inventors have chosen to knock in p2a-mCherry coding sequence in frame with the last exon of the human ESRRB gene. The present inventors have inserted oligos specific for the stop codon region of ESRRB gene into px335 plasmid which encodes CAS9 nickase and sgRNA. The present inventors have targeted WIBR3 human ESC OCT4 GFP knockin cell line. The efficiency of the targeting was about 30% (15 out of 48 clones) as verified by external PCR. Correct targeting was also verified by Southern Blot (SB) with external and anti-mCherry probes (FIG. 26B). After Neo cassette excision with Flippase, the whole targeted locus from one of the clones was amplified and sequenced. Clones 2-6 were correctly targeted (FIG. 26C).
FIGS. 26D-H are FACS analyses depicting expression of ESRRB-mCherry reporter in PSCs.
Background: A flow cytometer gives signals particle by particle.

Test [2] concerns the target T1, PKCζ (Homo sapiens, UniProt Q05513).
T1 sequence (Q05513 1-592): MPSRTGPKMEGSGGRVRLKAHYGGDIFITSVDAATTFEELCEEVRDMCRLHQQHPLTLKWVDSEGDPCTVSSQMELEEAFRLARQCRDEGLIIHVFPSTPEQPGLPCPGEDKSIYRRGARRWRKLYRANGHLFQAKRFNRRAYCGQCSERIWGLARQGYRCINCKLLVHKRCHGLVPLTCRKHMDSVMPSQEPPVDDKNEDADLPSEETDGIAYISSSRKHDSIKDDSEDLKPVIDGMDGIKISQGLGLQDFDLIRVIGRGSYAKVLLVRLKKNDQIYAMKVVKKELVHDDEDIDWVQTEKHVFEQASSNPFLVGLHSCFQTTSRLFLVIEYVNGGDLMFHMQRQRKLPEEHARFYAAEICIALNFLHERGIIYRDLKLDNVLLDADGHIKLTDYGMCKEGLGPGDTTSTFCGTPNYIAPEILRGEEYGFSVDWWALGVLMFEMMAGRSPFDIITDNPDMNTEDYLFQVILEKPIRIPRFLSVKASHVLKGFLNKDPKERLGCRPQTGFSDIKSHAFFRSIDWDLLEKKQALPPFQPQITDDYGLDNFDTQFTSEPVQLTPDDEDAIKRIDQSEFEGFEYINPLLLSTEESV
To be noted: cited from earlier work.

In test [3] the target is PKCα (Homo sapiens, UniProt P17252). To be noted: cited from earlier work.
The target of test [4] is PKCγ (Homo sapiens, UniProt P05129). Conditions: cited from earlier work.
For test [5], the target named is PKCδ (Homo sapiens, UniProt Q05655). Conditions: cited from earlier work.
PKCδ, sequence (Q05655 whole entry): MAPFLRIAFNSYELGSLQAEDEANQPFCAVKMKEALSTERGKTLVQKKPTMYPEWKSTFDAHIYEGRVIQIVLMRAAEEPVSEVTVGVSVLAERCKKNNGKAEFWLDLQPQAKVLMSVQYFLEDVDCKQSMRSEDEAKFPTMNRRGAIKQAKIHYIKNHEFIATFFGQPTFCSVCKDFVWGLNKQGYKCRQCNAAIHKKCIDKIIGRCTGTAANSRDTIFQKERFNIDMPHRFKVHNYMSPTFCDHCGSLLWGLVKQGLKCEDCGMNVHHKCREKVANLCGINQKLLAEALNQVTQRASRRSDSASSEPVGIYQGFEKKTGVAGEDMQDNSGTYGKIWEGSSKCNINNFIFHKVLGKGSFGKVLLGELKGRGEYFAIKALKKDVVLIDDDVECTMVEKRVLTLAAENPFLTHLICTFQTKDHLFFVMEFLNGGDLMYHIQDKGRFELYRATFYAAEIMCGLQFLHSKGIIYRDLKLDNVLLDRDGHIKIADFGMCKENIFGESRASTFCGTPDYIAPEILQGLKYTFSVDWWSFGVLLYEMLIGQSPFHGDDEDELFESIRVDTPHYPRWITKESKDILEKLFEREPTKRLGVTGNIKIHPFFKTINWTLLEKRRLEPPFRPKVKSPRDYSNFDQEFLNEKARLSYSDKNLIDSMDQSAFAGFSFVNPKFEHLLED
Test [6] addresses PKCβ (Homo sapiens, UniProt P05771). Conditions: cited from earlier work.
Test [7] concerns the target T2, PKCμ (Homo sapiens, UniProt Q15139).
T2 sequence (Q15139 1-912): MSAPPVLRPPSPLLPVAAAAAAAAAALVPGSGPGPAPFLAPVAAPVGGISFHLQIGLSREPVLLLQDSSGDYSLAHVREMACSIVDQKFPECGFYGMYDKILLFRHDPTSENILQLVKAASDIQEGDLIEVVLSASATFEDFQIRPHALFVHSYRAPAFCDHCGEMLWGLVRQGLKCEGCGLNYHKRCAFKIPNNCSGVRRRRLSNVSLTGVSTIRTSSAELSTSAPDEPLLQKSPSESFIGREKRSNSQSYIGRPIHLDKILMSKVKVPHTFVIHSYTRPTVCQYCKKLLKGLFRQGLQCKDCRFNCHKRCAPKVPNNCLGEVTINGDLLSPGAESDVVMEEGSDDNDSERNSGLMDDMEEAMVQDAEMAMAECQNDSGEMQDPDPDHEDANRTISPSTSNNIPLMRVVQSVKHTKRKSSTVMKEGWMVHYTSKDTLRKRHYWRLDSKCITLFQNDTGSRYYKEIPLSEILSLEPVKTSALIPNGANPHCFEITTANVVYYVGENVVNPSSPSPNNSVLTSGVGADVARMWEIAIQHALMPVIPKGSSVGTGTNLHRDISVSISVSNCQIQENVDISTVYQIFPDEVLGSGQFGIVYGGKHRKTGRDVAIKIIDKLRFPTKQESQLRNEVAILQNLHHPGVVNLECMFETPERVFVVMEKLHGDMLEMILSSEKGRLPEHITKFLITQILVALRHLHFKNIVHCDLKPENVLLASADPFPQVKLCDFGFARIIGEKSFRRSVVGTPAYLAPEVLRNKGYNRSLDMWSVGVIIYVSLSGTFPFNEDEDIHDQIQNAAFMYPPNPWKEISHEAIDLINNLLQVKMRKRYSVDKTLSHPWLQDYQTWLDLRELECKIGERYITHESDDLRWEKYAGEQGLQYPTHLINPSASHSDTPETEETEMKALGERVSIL
Conditions: cited from earlier work.

PKCβ, sequence (P05771 whole entry, species assumed): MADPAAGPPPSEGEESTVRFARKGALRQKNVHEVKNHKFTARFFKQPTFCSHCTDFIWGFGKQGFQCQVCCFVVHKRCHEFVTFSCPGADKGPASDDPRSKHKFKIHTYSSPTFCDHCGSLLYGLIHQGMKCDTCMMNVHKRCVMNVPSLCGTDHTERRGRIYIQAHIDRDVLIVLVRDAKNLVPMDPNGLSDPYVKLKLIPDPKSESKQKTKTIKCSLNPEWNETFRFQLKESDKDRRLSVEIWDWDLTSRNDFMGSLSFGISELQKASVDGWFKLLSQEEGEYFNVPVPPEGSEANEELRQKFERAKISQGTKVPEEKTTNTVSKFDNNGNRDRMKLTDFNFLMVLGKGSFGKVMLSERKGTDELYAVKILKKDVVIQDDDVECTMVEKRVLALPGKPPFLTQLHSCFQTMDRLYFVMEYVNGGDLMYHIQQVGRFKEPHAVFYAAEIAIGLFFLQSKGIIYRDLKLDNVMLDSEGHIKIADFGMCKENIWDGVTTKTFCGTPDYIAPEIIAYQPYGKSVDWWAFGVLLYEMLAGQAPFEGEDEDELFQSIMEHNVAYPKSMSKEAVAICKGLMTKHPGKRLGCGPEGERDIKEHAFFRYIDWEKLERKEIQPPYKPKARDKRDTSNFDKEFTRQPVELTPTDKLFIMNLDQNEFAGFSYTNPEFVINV

As for `COc1cc2nc(N3CCCN(C)CC3)nc(NC3CCN(Cc4ccccc4)CC3)c2cc1OC` [BIX01294], in test [1] (conditions 136 with BIX01294 removed from the culture medium), the “ESRRB mCherry expression” value is “this effect is lost”.
For orientation: IC50 means the point on the concentration scale where inhibition reaches its midpoint. As for `COc1ccc2c(c1)c(C1=C(c3c[nH]c4ccccc34)C(=O)NC1=O)cn2CCCN(C)C` [Go6983], the concentration for half-maximal inhibition (IC50) is 60 nM in test [2]; 7 nM in test [3]; 6 nM in test [4]; 10 nM in test [5]; 7 nM in test [6]; 20000 nM in test [7].

B1: Activin A: also known as Inhibin beta A, INHBA; activator of TGF/ACTIVIN pathway (protein, listed as Homo sapiens)
chain: MPLLWLRGFLLASCWIIVRSSPTPGSEGHSAAPDCPSCALAALPKDVPNSQPEMVEAVKKHILNMLHLKKRPDVTQPVPKAALLNAIRKLHVGKVGENGYVEIEDDIGRRAEMNELMEQTSEIITFAESGTARKTLHFEISKEGSDLSVVERAEVWLFLKVPKANRTRTKVTIRLFQQQKHPQGSLDTGEEAEEVGLKGERSELLLSEKVVDARKSTWHVFPVSSSIQRLLDQGKSSLDVRIACEQCQESGASLVLLGKKKKKEEEGEGKKKGGGEGGAGADEEKEQSHRPFLMLQARQSEDHPHRRRRRGLECDGKVNICCKKQFFVSFKDIGWNDWIIAPSGYHANYCEGECPSHIAGTSGSSLSFHSTVINHYRMRGHSPFANLKSCCVPTKLRPMSMLYYDDGQNIIKKDIQNMIVEECGCS
Turning to B1, the “ESRRB mCherry expression” value in test [1] (conditions 136 with Activin A added) is listed as “this effect is lost”.
